Literature values, collected in US6969532B2, “Compounds inhibiting COX-2 and iNOS promoter activities” (priority 2000, dated 2005).

System: human adenomatous polyposis
Details: randomized clinical trial

For `Cc1ccc(-c2cc(C(F)(F)F)nn2-c2ccc(S(N)(=O)=O)cc2)cc1` [Celebrex], the “extent of polyp reduction” value is listed as “about 30%”.
